Test results taken from patent US20240051940A1, “SULFONAMIDES WITH EGFR INHIBITION ACTIVITIES AND THEIR USE THEREOF” (ACCUTAR BIOTECHNOLOGY INC., priority 2021, published 2024).

Columns and labels:
Type in all cases: cell-based
[1] = tested on: HCC827-LTC (HCC827 cells stably expressing human EGFR L858R/T790M/C797S, endogenous EGFR knocked out); assay: Cell growth inhibition (CellTiter-Glo), HCC827-LTC; details: 72 h, 3 days after administration
Protocol: (§1) 1. Preparation of HCC827-LTC and HCC827-DTC Cell Lines
(§2) HCC827 cells (ATCC) were transduced with lentiviral particles expressing codon-optimized human EGFR L858R/T790M/C797S (LTC) mutant or del19/T790M/C797S (DTC) mutant, and then selecting under 5 ug/ml purimycin treatment for a week to generate HCC827 cells stably expressing EGFR LTC or DTC mutants. Next, endogenous EGFR gene in purimycin-selected HCC827 LTC or DTC cells was knocked out using CRISPR-Cas9 technology to ensure the growth of engineered HCC827 cells was solely dependent on exogenous EGFR LTC or DTC mutants. For the EGFR knockout, gRNA complex was prepared by combining Alt-R CRISPR-Cas9 tracrRNA and EGFR crRNA (5′-[…]-3′ for LTC) or (5′-[…]-3′ for DTC) (IDT-Integrated DNA Technologies), and then EGFR ribonucleoprotein (RNP) complex was prepared by combining gRNA complex and Alt-R S.p. Cas9 Nuclease V3 (IDT-Integrated DNA Technologies). Purimycin-selected HCC827 LTC or DTC cells were then electroporated with EGFR RNP complexes using Neon Transfection System (Thermo Fisher). Single clones of HCC827-LTC or HCC827-DTC with endogenous EGFR knockout were picked one week after electroporation and their EGFR knockout was validated by genomic DNA sequencing. HCC827-LTC or HCC827-DTC single clones were also further validated with loss of inhibitory activity by covalent EGFR inhibitors.
(§3) 2. Cell Growth Inhibition for HCC827, HCC827-LTC, HCC827-DTC and NCI-H2073.
(§4) HCC827(ATCC), HCC827-LTC, HCC827-DTC and NCI-H2073 (ATCC) were seeded in 96-well plates at 5000 cells/well in 90 μL of RPMI growth medium containing 10% FBS and 1% Penicillin Streptomycin. Cells were incubated at 37° C. overnight. The following day, the test compound was administered to the cells by using 10× compound stock solution prepared in growth medium at various concentrations. After administration of the compound, cells were then incubated at 37° C. for 3 days. Before CellTiter-Glo assay, the plates were equilibrated at room temperature for approximately 10 minutes. 100 ul of CellTiter-Glo® Reagent (Promega) was added to each well. The plates were then incubated at room temperature for 10 minutes and luminescence was recorded by EnSpire plate reader (PerkinElmer).

NCI-H2073 = assay: Cell growth inhibition (CellTiter-Glo), NCI-H2073; details: 72 h, NCI-H2073 cells, 3 days after administration
Protocol: as §3, §4

HCC827 = assay: Cell growth inhibition (CellTiter-Glo), HCC827; details: Homo sapiens, 72 h, HCC827 cells, 3 days after administration
Protocol: as §3, §4

[2] = tested on: HCC827-DTC (HCC827 cells stably expressing human EGFR del19/T790M/C797S, endogenous EGFR knocked out); assay: Cell growth inhibition (CellTiter-Glo), HCC827-DTC; details: 72 h, 3 days after administration
Protocol: as §1, §2, §3, §4

| GI50 [1] [nM] | GI50 (NCI-H2073) [nM] | GI50 (HCC827) [nM] | GI50 [2] [nM] | SMILES |
| --- | --- | --- | --- | --- |
| 100 to 300 | 100 to 300 | 30 to 100 | 100 to 300 | COc1cc(N2CCC(N3CCN(C)CC3)CC2)c(C)cc1Nc1ncc(Br)c(Nc2ccc3nccnc3c2NS(C)(=O)=O)n1 [Compound 1, N-(6-((5-bromo-2-((2-methoxy-5-methyl-4-(4-(4-methylpiperazin-1-yl)piperidin-1-yl)phenyl)amino)pyrimidin-4-yl)amino)quinoxalin-5-yl)methanesulfonamide] |
| 30 to 100 | 100 to 300 | < 30 | 30 to 100 | CCc1cc(Nc2ncc(Br)c(Nc3ccc4nccnc4c3NS(C)(=O)=O)n2)c(OC)cc1N1CCC(N2CCN(C)CC2)CC1 [Compound 2, N-(6-((5-bromo-2-((5-ethyl-2-methoxy-4-(4-(4-methylpiperazin-1-yl)piperidin-1-yl)phenyl)amino)pyrimidin-4-yl)amino)quinoxalin-5-yl)methanesulfonamide] |
| 100 to 300 | 100 to 300 | 30 to 100 | 100 to 300 | COc1cc(N2CCC(N3CCN(C)CC3)CC2)c(C)cc1Nc1ncnc(Nc2ccccc2NS(C)(=O)=O)n1 [Compound 3, N-(2-((4-((2-methoxy-5-methyl-4-(4-(4-methylpiperazin-1-yl)piperidin-1-yl)phenyl)amino)-1,3,5-triazin-2-yl)amino)phenyl)methanesulfon-amide] |
| 100 to 300 | 30 to 100 | < 30 | 30 to 100 | COc1cc(N2CCC(N3CCN(C)CC3)CC2)c(C)cc1Nc1ncc(Cl)c(Nc2ccc3nccnc3c2NS(C)(=O)=O)n1 [Compound 4, N-(6-((5-chloro-2-((2-methoxy-5-methyl-4-(4-(4-methylpiperazin-1-yl)piperidin-1-yl)phenyl)amino)pyrimidin-4-yl)amino)quinoxalin-5-yl)methanesulfonamide] |
